According to patent publication US12616688B2, “Cell glycocalyx protection effect of anisodamine” (priority 2020, dated 2026):

Key:
Type in all cases: cell-based, human
hCMEC/D3 cell [1] = experiment: CCK-8 cell proliferation assay; details: under 50 μg/mL LPS, 24 h
Method: Immortalized HBMVEC hCMEC/D3 was taken from the Beijing Beina Chuanglian Biotechnology Institute (BNBIO) in China. The hCMEC/D3 endothelial cell was cultivated with an endothelial cell culture medium (ECM; cat.1001, Sciencell, USA) at 37° C. and 5% CO2. Anisodamine hydrobromide was taken from the Chengdu First Pharmaceutical Co., Ltd., Chengdu, China. Anisodamine hydrobromide was dissolved in distilled water at 20 mg/mL, then a resulting solution was filtered through a 0.22 μm filter membrane, and anisodamine hydrobromide solutions with final concentrations of 10 μg/mL, 20 μg/mL, 40 μg/mL, and 80 μg/mL each were prepared with ECM. LPS was dissolved in distilled water at 2 mg/mL, and LPS solutions with concentrations of 1 μg/mL, 10 μg/mL, 20 μg/mL, 50 μg/mL, and 100 μg/mL each were prepared with ECM. The hCMEC/D3 cell was treated with LPS and anisodamine hydrobromide.
The cell proliferation was assayed by the CCK-8 method (C0042, Beyotime, China). 2,000 cells were inoculated into a 96-well plate, cultivated for 24 h, and then treated with LPS and anisodamine hydrobromide; and before the end of the experiment, a CCK8 assay solution was added, the plate was incubated for 1 h, and then the absorbance at 450 nm was determined by a microplate reader (Labsery K3 Touch, Thermo Fisher, USA).

[2] = test system: glycocalyx HS and cadherin of hCMEC/D3 cell; experiment: Immunofluorescence staining and confocal microscopy of HS and cadherin
Method: 2.1 Experimental Groups: Normal Control Group, LPS Treatment Group (50 μg/mL), Low-Concentration Administration Group (LPS 50 μg/mL+Anisodamine Hydrobromide 10 μg/mL), and High-Concentration Administration Group (LPS 50 μg/mL+Anisodamine Hydrobromide 20 μg/mL). 2.2 Immunofluorescence Staining and Confocal Microscopy
A cell was fixed and penetrated, then blocked with 2% goat serum, and labeled with a murine HS monoclonal antibody (mAb) (1:100, 10E4 epitope, AMS Biotechnology, UK), a rabbit cadherin polyclonal antibody (pAb) (1:100, A0734, Abclonal, China), an Alexa Fluor 488 goat anti-murine (1:400, A11001, Thermo Fisher) secondary antibody, and an Alexa Fluor 568 donkey anti-rabbit (1:400, A10042, Thermo Fisher) secondary antibody. The cell nucleus was labeled with DAPI. Mounting was conducted, and then the cell was detected under a confocal microscope at LSM710.

hCMEC/D3 barrier = experiment: Endothelial permeability assay (Transwell, FITC-dextran leakage); details: for LPS-induced permeability relative to control group: 24 h
Method: 3.1 Experimental Groups: Which were the Same as in Example 2.
A cell (5×10^4 in 200 μL ECM) was inoculated into an upper well of Transwell (0.4 μm, Corning, USA), and 200 μL of ECM was added to a lower well; the Transwell was incubated for 3 d in a 37° C. and 5% CO2 incubator until a cell confluency was 90%; a medium in the upper well was replaced with 50 μg/mL LPS or anisodamine hydrobromide (10 μg/mL or 20 μg/mL)-free fresh ECM, and a medium in the lower well was replaced with fresh ECM; 24 h later, 10 μL of fluorescein isothiocyanate (FITC)-dextran (40 kDa; Cat. 46944, Sigma-Aldrich, USA) was added to the upper well; 40 min later, 100 μL of a medium was taken from the lower well, and fluorescence values at 490 nm and 525 nm were determined; and a leakage amount of FITC-dextran was calculated to assess the permeability of an endothelial cell layer.

hCMEC/D3 cell [3] = experiment: NO production assay
Method: 4.1 Experimental Groups: Which were the Same as in Example 2.
A cell was pre-cooled with PBS, then ultrasonically disrupted and homogenized, and centrifuged at 16,000 g and 4° C. for 20 min, a resulting supernatant was collected, and a NO detection kit (Nanjing Jiancheng Institute of Biological Engineering A012) was used to determine the absorbance at 550 nm, thereby determining an NO level.

[4] = LPS 50 μg/mL + anisodamine hydrobromide 10 μg/mL
[5] = LPS 50 μg/mL + anisodamine hydrobromide 20 μg/mL
[6] = LPS 50 μg/mL + anisodamine hydrobromide 10 or 20 μg/mL

**Q.** What does the source list for `Br.CN1[C@H]2C[C@H](OC(=O)[C@H](CO)c3ccccc3)C[C@@H]1[C@@H](O)C2` [anisodamine hydrobromide, Anisodamine hydrobromide]?
**A.** cell proliferation (hCMEC/D3 cell [1]; anisodamine hydrobromide 20 μg/mL): significantly increased the cell proliferation; cell proliferation (hCMEC/D3 cell [1]; anisodamine hydrobromide 20 μg/mL, listed as anisodamine): significantly improve the proliferation; cell proliferation (hCMEC/D3 cell [1]; anisodamine hydrobromide 80 μg/mL): significantly down-regulated the cell proliferation; cell proliferation (hCMEC/D3 cell [1]; anisodamine hydrobromide 80 μg/mL, listed as anisodamine): significantly inhibit the proliferation; loss of cadherin and HS [2, 4]: inhibit the loss of cadherin and HS; loss of cadherin and HS [2, 5]: inhibit the loss of cadherin and HS; integrity and width of a cell junction [2, 6]: restored the integrity and width of a cell junction; cadherin level and HS coverage rate ([2]; compared with the control group and the 10 μg/mL anisodamine hydrobromide group (group not named, apparently 20 μg/mL)): increased slightly, but not significantly; LPS-induced permeability relative to control group (hCMEC/D3 barrier; [4]): 2.7 times; LPS-induced permeability relative to control group (hCMEC/D3 barrier; [5]): 2.6 times; permeability, anisodamine hydrobromide group vs control group (hCMEC/D3 barrier; [6]): no significant difference; LPS-induced NO production relative to control group (hCMEC/D3 cell [3]; [4]): 1.2 times; LPS-induced NO level (hCMEC/D3 cell [3]; LPS 50 μg/mL + anisodamine hydrobromide 10 μg/mL (second mention)): significantly reduced the LPS-induced NO level
